From US10981864B2, “Crystalline modifications of N-(4,5-bismethanesulfonyl-2-methylbenzoyl)guanidine hydrochloride and N-(4,5-bismethanesulfonyl-2-methylbenzoyl)guanidine salts” (MERCK PATENT GMBH, priority 2016, dated 2021)
Several values for one entry are separate records, joined by “and”; a condition that tells them apart may be missing. Equal values may be shown once. Entries after “also recorded” stand apart in the source; their conditions may differ. Where a name gives a salt, the structure may show the parent alone.

Tests used:
Format in all cases: physicochemical
[1] = Mini-dissolution in FeSSIF medium (pH 5.0), dissolved quantity by HPLC; settings: for Dissolution levels in FeSSIF pH 5.0: FeSSIF pH 5.0, 37° C.; for Dissolution behavior compared to prior-art form HCl-H1: biorelevant media, Fed-state conditions (FeSSIF, pH 5.0)
Description: Approximately 10-12 mg of N-(4,5-bis-methanesulfonyl-2-methyl-benzoyl)guanidine form HCl-H1 (HCl salt hydrate form, prior-art), HCl salt anhydrous forms (forms HCl-A1, HCl-A2, HCl-A3), and novel salt forms [phosphate salt (form Phosphate-NF1), maleate salt (form Maleate-NF2), oxalate salt (form Oxalate-NF1), citrate salt (form citrate-NF1), sulfate salt (form Sulfate-NF3), succinate salt (form Succinate-NF1), malonate salt (form Malonate-NF1), besylate salt (form Besylate-NF1), p-tosylate salt (form Tosylate-NF1), malate salt (form Malate-NF1), fumarate salt (form Fumarate-NF1), tartrate salt (form Tartrate-NF1)] are weighed into 4 mL glass vials, and dispersed in 4 mL FeSSIF medium (pH 5.0, Acetate buffer capacity increased by factor 4 to ensure stable pH conditions over course of dissolution experiments).
All dispersions are agitated at 37° C. for up to 2 hours. At defined time intervals (5 min, 15 min, 60 min, 120 min), 0.4 mL sample aliquots of homogeneous dispersions are withdrawn by a syringe, and filtrated via syringe filter adapters (PTFE, 0.2 μm). Clear filtrates are diluted (1:20) with respective Acetate blank buffer, and diluted samples analyzed by HPLC for dissolved quantities of N-(4,5-bis-methanesulfonyl-2-methyl-benzoyl)-guanidine.

[2] = Water Vapour Sorption isotherm (DVS), hygroscopicity acc. to Ph. Eur.; settings: for Water uptake levels (Water Vapour Sorption): 25° C.; for Tendency to undergo hydrate formation: upon exposure to elevated RH levels
Description: As used herein, unless stated otherwise, Water Vapour Sorption isotherm measurements are carried out on a DVS-1 or a DVS-Intrinsic system from SMS.
A second endothermic event occurs at >180° C., which is due to melting of the dehydrated form. This is followed by immediate re-crystallisation (exothermic event), and subsequent melting of the re-crystallized phase at >240° C. […] DSC scan of form HCl-H1 was acquired on a Mettler-Toledo DSC 821 with a heating rate of 5 K/min, using nitrogen purge gas at 50 mL/min. […] Form HCl-H1 can be classified as non-hygroscopic acc. to Ph. Eur. criteria (section 5.11.). […] Water Vapour Sorption isotherm was acquired on a DVS-1 system from SMS. • Dissolution level of form HCl-H1 in Fed-State Simulated Intestinal Fluid [FeSSIF, pH 5.0] at 37° C. was determined to be approx. 1.50 mg/mL (after 15 min), approx. 4.16 mg/mL (after 60 min), and approx. 4.54 mg/mL (after 120 min), respectively (see example 17).

[3] = Thermal behaviour (DSC/TGA), thermal stability; settings: DSC/TGA 5 K/min
Description: As used herein, unless stated otherwise, the DSC measurements are carried out using a Mettler-Toledo DSC 821 with a heating rate of 5 K/min, using nitrogen purge gas at 50 mL/min.
As used herein, unless stated otherwise, the TGA measurements are carried out using a Mettler-Toledo TGA 851 with a heating rate of 5 K/min, using nitrogen purge gas at 50 mL/min.

[4] = relative humidity range 0-90% rh
[5] = relative humidity range 0-80% rh
[6] = entire relative humidity range 0-98% rh

SMILES | Dissolution levels in FeSSIF pH 5.0 ([1]; 5 min) | Dissolution levels in FeSSIF pH 5.0 ([1]; 15 min) | Dissolution levels in FeSSIF pH 5.0 ([1]; 60 min) | Dissolution levels in FeSSIF pH 5.0 ([1]; 120 min) | Dissolution behavior compared to prior-art form HCl-H1 [1] | Hygroscopicity classification acc. to Ph. Eur. criteria (section 5.11.) [2] | Water uptake levels (Water Vapour Sorption) [2, 4] | Water uptake levels (Water Vapour Sorption) [2, 5] | Thermal stability (mp/dec) [3] | Tendency to undergo hydrate formation [2] | Water uptake levels (Water Vapour Sorption) ([2]; relative humidity range 10-90% rh) | Water uptake levels (Water Vapour Sorption) [2, 6]
Cc1cc(S(C)(=O)=O)c(S(C)(=O)=O)cc1C(=O)NC(=N)N (racemic) [Tartrate-NF1, N-(4,5-bis-methanesulfonyl-2-methyl-benzoyl)-guanidine] | 5.165 mg/mL | 5.17±0.02 mg/mL and 5.165 mg/mL | 5.17±0.02 mg/mL and 5.165 mg/mL | 5.17±0.02 mg/mL | improved dissolution behavior | slightly hygroscopic | ≤ 1.0 wt % | – | – | – | – | –
Cc1cc(S(C)(=O)=O)c(S(C)(=O)=O)cc1C(=O)NC(=N)N [Besylate-NF1, N-(4,5-bis-methanesulfonyl-2-methyl-benzoyl)-guanidine] | 4.059 mg/mL | 5.57±0.02 mg/mL and 5.570 mg/mL | 5.57±0.02 mg/mL and 5.570 mg/mL | 3.87±0.02 mg/mL and 3.873 mg/mL | improved dissolution behavior | slightly hygroscopic | – | 1.0 wt % | > 280 °C | – | – | –
Cc1cc(S(C)(=O)=O)c(S(C)(=O)=O)cc1C(=O)NC(=N)N [Citrate-NF1, N-(4,5-bis-methanesulfonyl-2-methyl-benzoyl)-guanidine] | 2.056 mg/mL | 4.13±0.02 mg/mL and 4.132 mg/mL | – | – | improved dissolution behavior | slightly hygroscopic | ≤ 1.5 wt % | – | ~180 °C | no tendency to undergo hydrate formation | – | –
Cc1cc(S(C)(=O)=O)c(S(C)(=O)=O)cc1C(=O)NC(=N)N [Fumarate-NF1, N-(4,5-bis-methanesulfonyl-2-methyl-benzoyl)-guanidine] | 2.606 mg/mL | 4.22±0.02 mg/mL and 4.222 mg/mL | 4.34±0.02 mg/mL and 4.337 mg/mL | 4.36±0.02 mg/mL and 4.361 mg/mL | improved dissolution behavior | slightly hygroscopic | – | – | – | – | – | –
Cc1cc(S(C)(=O)=O)c(S(C)(=O)=O)cc1C(=O)NC(=N)N [HBr-NF1, N-(4,5-bis-methanesulfonyl-2-methyl-benzoyl)-guanidine] | – | – | – | – | – | non-hygroscopic | – | – | – | – | 4.3-4.4 wt % | –
Cc1cc(S(C)(=O)=O)c(S(C)(=O)=O)cc1C(=O)NC(=N)N [HCl-A1, N-(4,5-bis-methanesulfonyl-2-methyl-benzoyl)-guanidine] | 0.541 mg/mL | 0.87±0.02 mg/mL and 0.866 mg/mL | 2.53±0.02 mg/mL and 2.535 mg/mL | 2.76±0.02 mg/mL and 2.765 mg/mL | – | – | – | – | – | – | – | –
Cc1cc(S(C)(=O)=O)c(S(C)(=O)=O)cc1C(=O)NC(=N)N [HCl-A2, N-(4,5-bis-methanesulfonyl-2-methyl-benzoyl)-guanidine] | 0.990 mg/mL | 1.19±0.02 mg/mL and 1.193 mg/mL | 1.90±0.02 mg/mL and 1.897 mg/mL | 2.21±0.02 mg/mL and 2.213 mg/mL | – | non-hygroscopic | – | 0.1 wt % | > 240 °C | – | – | –
Cc1cc(S(C)(=O)=O)c(S(C)(=O)=O)cc1C(=O)NC(=N)N [HCl-A3, N-(4,5-bis-methanesulfonyl-2-methyl-benzoyl)-guanidine] | 0.418 mg/mL | 0.74±0.02 mg/mL and 0.738 mg/mL | 2.51±0.02 mg/mL and 2.506 mg/mL | 3.78±0.02 mg/mL and 3.781 mg/mL | – | non-hygroscopic | – | – | > 240 °C | – | – | ≤ 0.4 wt %
Cc1cc(S(C)(=O)=O)c(S(C)(=O)=O)cc1C(=O)NC(=N)N.Cl.O [HCl-H1, N-(4,5-bismethanesulfonyl-2-methylbenzoyl)-guanidine hydrochloride hydrate, reference compound] | 0.494 mg/mL | – | – | – | – | non-hygroscopic | – | – | – | – | – | ≤ 0.2 wt %
Cc1cc(S(C)(=O)=O)c(S(C)(=O)=O)cc1C(=O)NC(=N)N [Malate-NF1, N-(4,5-bis-methanesulfonyl-2-methyl-benzoyl)-guanidine] | 5.510 mg/mL | 5.51±0.02 mg/mL and 5.510 mg/mL | 5.51±0.02 mg/mL and 5.510 mg/mL | 4.27±0.02 mg/mL and 4.275 mg/mL | improved dissolution behavior | hygroscopic | 7.5 wt % | – | – | – | – | –
Cc1cc(S(C)(=O)=O)c(S(C)(=O)=O)cc1C(=O)NC(=N)N [Maleate-NF1, N-(4,5-bis-methanesulfonyl-2-methyl-benzoyl)-guanidine] | – | – | – | – | – | – | – | – | > 170 °C | – | – | –
Cc1cc(S(C)(=O)=O)c(S(C)(=O)=O)cc1C(=O)NC(=N)N [Maleate-NF2, N-(4,5-bis-methanesulfonyl-2-methyl-benzoyl)-guanidine] | 2.043 mg/mL | 4.30±0.02 mg/mL and 4.296 mg/mL | 6.35±0.02 mg/mL and 6.350 mg/mL | 6.35±0.02 mg/mL and 6.350 mg/mL | improved dissolution behavior | non-hygroscopic; also recorded: slightly hygroscopic | – | – | > 200 °C | no tendency to undergo hydrate formation | – | ≤ 0.3 wt %
Cc1cc(S(C)(=O)=O)c(S(C)(=O)=O)cc1C(=O)NC(=N)N [Malonate-NF1, N-(4,5-bis-methanesulfonyl-2-methyl-benzoyl)-guanidine] | 3.527 mg/mL | 5.340 mg/mL | 5.77±0.02 mg/mL and 5.770 mg/mL | 5.79±0.02 mg/mL and 5.790 mg/mL | improved dissolution behavior | slightly hygroscopic | – | ≤ 1.0 wt % | > 190 °C | – | – | –
Cc1cc(S(C)(=O)=O)c(S(C)(=O)=O)cc1C(=O)NC(=N)N [Oxalate-NF1, N-(4,5-bis-methanesulfonyl-2-methyl-benzoyl)-guanidine] | 1.329 mg/mL | 2.09±0.02 mg/mL and 2.095 mg/mL | 3.04±0.02 mg/mL and 3.042 mg/mL | 3.02±0.02 mg/mL and 3.025 mg/mL | improved dissolution behavior | non-hygroscopic | – | – | > 260 °C | no tendency to undergo hydrate formation | – | –
